Results from patent US7517998B2, “Non nucleoside reverse transcriptase inhibitors” (priority 2004, dated 2009).

Target: T1, K103NNY181C mutant reverse transcriptase (Human immunodeficiency virus type 1 group M subtype B, UniProt P04585, K690N/Y768C)
T1 construct: mutations that occur in the reverse transcriptase segment of the pol gene
Experiment: Reverse transcriptase enzymatic assay (PicoGreen), K103N/Y181C mutant RT
Type: biochemical, HIV-1
Settings: IC50 mut (nM), mutant (K103N/Y181C) reverse transcriptase, enzymatic assay of Example 24
In short: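 PicoGreen fluorescence (ex 485, em 520 nm) quantified product after EDTA stop. Reaction ran 50 min at 37 °C in pH 7.8 Tris/HCl buffer, 1% DMSO, with poly rC/dG15 template-primer (45/4.5 nM), 3.6 μM dGTP, 2.5 nM enzyme; inhibitor 10 μM–0.508 nM final after 15 min room-temperature pre-incubation.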

SMILES | IC50
CC(C)(C)c1ccc(-n2nnnc2SCC(=O)Nc2ccc(NC(=O)C(C)(C)c3ccccc3)cc2Cl)c(Cl)c1 [Compound 7041] | 337 nM
COc1ccc(CC(=O)Nc2ccc(NC(=O)CSc3nnnn3-c3ccc(C(C)(C)C)cc3Cl)c(Cl)c2)cc1 [Compound 7015] | 189 nM
CC(C)(C)c1ccc(-n2nnnc2SCC(=O)Nc2ccc(NC(=O)Cc3ccccc3O)cc2Cl)c(Cl)c1 [Compound 7042] | 27 nM
CC(=O)NC(C(=O)Nc1ccc(NC(=O)CSc2nnnn2-c2ccc(C(C)(C)C)cc2Cl)c(Cl)c1)c1ccccc1 (centres unmarked) [Compound 7033] | 21.5 nM
CC(C)(C)c1ccc(-n2nnnc2SCC(=O)Nc2ccc(NC(=O)Cn3cnnn3)cc2Cl)c(Cl)c1 [Compound 7040] | 42.5 nM

Same assay, conditions: IC50 mut, K103N/Y181C mutant reverse transcriptase, enzymatic assay of Example 24

SMILES | IC50
CC(C)(C#Cc1ccc(NC(=O)CSc2nnnn2-c2cc(C(F)(F)F)c(C3CC3)cc2Cl)c(Cl)c1)C(=O)O [Compound 4211] | 482 nM
O=C(CSc1nnnn1-c1ccc(C2CC2)cc1Cl)Nc1ccc(C#CCCN2CCC(O)CC2)cc1Cl [Compound 4134] | 28.5 nM
CN(C)CCCNC(=O)C(C)(C)C#Cc1ccc(NC(=O)CSc2nnnn2-c2ccc(C3CC3)cc2Cl)c(Cl)c1 [Compound 4145] | 48 nM
CC(C)(C#Cc1ccc(NC(=O)CSc2nnnn2-c2ccc(C(C)(C)C)cc2Cl)c(Cl)c1)OCC(=O)NCc1ccco1 [Compound 4037] | 66 nM
CC(C)(C#Cc1ccc(NC(=O)CSc2nnnn2-c2ccc(CC3CC3)cc2Cl)c(Cl)c1)NC(=O)c1cc[n+]([O-])cc1 [Compound 4247] | 19 nM
CC(C)(C#Cc1ccc(NC(=O)CSc2nnnn2-c2ccc(C3CC3)cc2Cl)c(Cl)c1)NC(=O)c1csnn1 [Compound 4107] | 15 nM
CC(C)(C#Cc1ccc(NC(=O)CSc2nnnn2-c2cccc(C3CC3)c2Cl)c(Cl)c1)C(=O)O [Compound 4179] | 467 nM
CC(C)(C#Cc1ccc(NC(=O)CSc2nnnn2-c2ccc(C3CC3)cc2Cl)c(Cl)c1F)OCCOc1ccc[n+]([O-])c1 [Compound 4215] | 56.5 nM
CN1CCN(CC#Cc2ccc(NC(=O)CSc3nnnn3-c3ccc(C(C)(C)C)cc3Cl)c(Cl)c2)CC1 [Compound 4015] | 40 nM
CC(C)(C#Cc1ccc(NC(=O)CSc2nnnn2-c2ccc(C(C)(C)C)cc2Cl)c(Cl)c1)OCC(=O)NCC(=O)O [Compound 4052] | 30 nM
CC(C)(O)C#Cc1ccc(NC(=O)CSc2nnnn2-c2cc3c(cc2Cl)CCC3)c(Cl)c1 [Compound 4065] | 13.5 nM
CC(C)Oc1ccc(Cl)c(-n2nnnc2SCC(=O)Nc2ccc(C#CC(C)(C)C(=O)O)cc2Cl)c1 [Compound 4187] | 61.5 nM
CC(C)(C#Cc1ccc(NC(=O)CSc2nnnn2-c2ccc(C3CC3)cc2Cl)c(Cl)c1)OCCN1CCC(O)CC1 [Compound 4104] | 64.5 nM
O=C(CSc1nnnn1-c1ccc(C2CC2)cc1Cl)Nc1ccc(C#CCCN2CCCC2)cc1Cl [Compound 4132] | 49.5 nM
CC(C)(C#Cc1ccc(NC(=O)CSc2nnnn2-c2ccc(C3CC3)cc2Cl)c(Cl)c1)OCCN1CCS(=O)(=O)CC1 [Compound 4241] | 30.5 nM
CC(C)(N)C#Cc1ccc(NC(=O)CSc2nnnn2-c2cc(C(C)(C)C)ccc2Cl)c(Cl)c1 [Compound 4201] | 52 nM
CC(C)(C#Cc1ccc(NC(=O)CSc2nnnn2-c2cc(C(C)(C)C)cc(Br)c2Cl)c(Cl)c1)NC(=O)CN1CCNCC1 [Compound 4224] | 101 nM
CC(C)(C#Cc1ccc(NC(=O)CSc2nnnn2-c2ccc(C3CC3)cc2Cl)c(Cl)c1)OCCNC1CCC1 [Compound 4118] | 89.5 nM
CC(C)(C#Cc1ccc(NC(=O)CSc2nnnn2-c2cc(C(F)(F)F)ccc2Cl)c(Cl)c1)NC(=O)C1CC1 [Compound 4140] | 51 nM
CC(C)(C#Cc1ccc(NC(=O)CSc2nnnn2-c2ccc(CC3CC3)cc2Cl)c(Cl)c1)C(=O)NCCCN1CCCC1=O [Compound 4244] | 217 nM
CC(C)(C#Cc1ccc(NC(=O)CSc2nnnn2-c2ccc(C3CC3)cc2Cl)c(Cl)c1)NC(=O)c1cc[n+]([O-])cc1 [Compound 4086] | 12 nM
Cc1cc(C#CC(C)(C)C(=O)O)ccc1NC(=O)CSc1nnnn1-c1ccc(C(C)(C)C)cc1Cl [Compound 4057] | 96 nM
CC(C)(C#Cc1ccc(NC(=O)CSc2nnnn2-c2cc(C(C)(C)C)cc(Br)c2Cl)c(Cl)c1)NC(=O)CNc1cc[n+]([O-])cc1 [Compound 4225] | 162 nM
CC(C)(C#Cc1ccc(NC(=O)CSc2nnnn2-c2ccc(C3CC3)cc2Cl)c(Cl)c1)NC(=O)c1ccncc1 [Compound 4085] | 12 nM
CN(C)CCCC(=O)NC(C)(C)C#Cc1ccc(NC(=O)CSc2nnnn2-c2ccc(C3CC3)cc2Cl)c(Cl)c1 [Compound 4108] | 27 nM
CN(C)c1ccc(Cl)c(-n2nnnc2SCC(=O)Nc2ccc(C#CC(C)(C)C(=O)O)cc2Cl)c1 [Compound 4243] | 140 nM
CC(C)(C#Cc1ccc(NC(=O)CSc2nnnn2-c2ccc(C3CC3)cc2Cl)c(Cl)c1)NC(=O)N1CCNCC1 [Compound 4228] | 30 nM
CN(C)CC(=O)NC(C)(C)C#Cc1ccc(NC(=O)CSc2nnnn2-c2ccc(C3CC3)cc2Cl)c(Cl)c1F [Compound 4155] | 9.15 nM
CC(C)(C#Cc1ccc(NC(=O)CSc2nnnn2-c2ccc(C3CC3)cc2Cl)c(Cl)c1)C(=O)NCCN1CCCC1 [Compound 4143] | 65 nM

Same assay, conditions: IC50 mut, mutant reverse transcriptase, enzymatic assay of Example 24

SMILES | IC50
COC(=O)c1cccc(-c2ccc(NC(=O)CSc3nnnn3-c3ccc(C)cc3Cl)c(Cl)c2)c1 [Compound 3001] | 146 nM
CC(C)(C)c1ccc(-n2nnnc2SCC(=O)Nc2ccc(C(=O)Nc3ccc(O)cc3)cc2Cl)c(Cl)c1 [Compound 6013] | 34 nM
O=C(COc1ccc(NC(=O)CSc2nnnn2-c2ccc(C3CC3)cc2Cl)c(Cl)c1)NCCc1ccccn1 [Compound 5034] | 357 nM
CN(C)c1ccc(NC(=O)COc2ccc(NC(=O)CSc3nnnn3-c3ccc(C(C)(C)C)cc3Cl)c(Cl)c2)cc1 [Compound 5012] | 466 nM
Cc1cc(NC(=O)c2ccc(NC(=O)CSc3nnnn3-c3ccc(C(C)(C)C)cc3Cl)c(Cl)c2)ccc1/C=C/C(=O)O [Compound 6032] | 20.5 nM
O=C(CSc1nnnn1-c1ccc(C2CC2)cc1Cl)Nc1ccc(S(=O)(=O)N2CCC(C(=O)O)CC2)cc1Cl [Compound 3042] | 387 nM
Cc1ccc(-n2nnnc2SCC(=O)Nc2ccc(-c3ccc(CC(=O)O)cc3)cc2Cl)c(Cl)c1 [Compound 2004] | 48 nM
CN(C)S(=O)(=O)c1ccc(NC(=O)CSc2nnnn2-c2ccc(C(C)(C)C)cc2Cl)c(Cl)c1 [Compound 3025] | 217 nM
CC(C)(C)c1ccc(-n2nnnc2SCC(=O)Nc2ccc(C(=O)NCc3ccco3)cc2Cl)c(Cl)c1 [Compound 6003] | 13 nM
CC(C)(NC(=O)c1ccc(NC(=O)CSc2nnnn2-c2ccc(C3CC3)cc2Cl)c(Cl)c1)C(=O)O [Compound 6033] | 298 nM
CC(C)(C)c1ccc(-n2nnnc2SCC(=O)Nc2ccc(-c3ccc(OCCN4CCC(C(=O)O)CC4)cc3)cc2Cl)c(Cl)c1 [Compound 2040] | 36 nM
CC(C)(C)c1ccc(-n2nnnc2SCC(=O)Nc2ccc(S(=O)(=O)NCCc3ccccc3)cc2Cl)c(Cl)c1 [Compound 3024] | 516 nM
CNS(=O)(=O)c1ccc(NC(=O)CSc2nnnn2-c2ccc(C(C)(C)C)cc2Cl)c(Cl)c1 [Compound 3021] | 63 nM
CC(C)(C)c1ccc(-n2nnnc2SCC(=O)Nc2ccc(-c3ccc(OCCN4CC[C@H](O)C4)cc3)cc2Cl)c(Cl)c1 [Compound 2042] | 15 nM
O=C(COc1ccc(NC(=O)CSc2nnnn2-c2ccc(C3CC3)cc2Cl)c(Cl)c1)NCc1cccnc1 [Compound 5033] | 124 nM
CC(C)(C)c1ccc(-n2nnnc2SCC(=O)Nc2ccc(OCCN3CCCCC3)cc2Cl)c(Cl)c1 [Compound 3033] | 201 nM
CC(C)(C)c1ccc(-n2nnnc2SCC(=O)Nc2ccc(C(=O)N3CCC(C(=O)O)CC3)cc2Cl)c(Cl)c1 [Compound 6030] | 919 nM
Cc1cc(C)c(-n2nnnc2SCC(=O)Nc2ccc(-c3ccc(C(C)(C)C(=O)O)cc3)cc2Cl)c(Cl)c1 [Compound 2025] | 42 nM
O=C(CSc1nnnn1-c1cc(C(F)(F)F)ccc1Cl)Nc1ccc(-c2ccc(OCCN3CCCCC3)cc2)cc1Cl [Compound 2049] | 54 nM
